Laboratory results: US7595401B2, “Therapeutic compounds and their use in cancer” (Myriad Pharmaceuticals, Inc., priority 2006, dated 2009)

System: purified human Hsp90
Assay: Binding Assay: fluorescence polarization with BODIPY-labeled geldanamycin
Details: 5 μM compound, BODIPY-GM 10 nM, Hsp90 30 nM
How it was run: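 Fluorescence polarization competition with BODIPY-geldanamycin (10 nM final) and human Hsp90 (30 nM final) in HEPES-KOH pH 7.3 buffer with molybdate, NP-40, DTT; 2% DMSO, overnight at room temperature. Read 485/530 nm; percent inhibition from mP normalized to DMSO controls, fluorescent-compound points excluded.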

Row | % Inhibition at 5 μM Compound Concentration [%] | Structure (SMILES)
1 | 0.0 | Nc1ncn(CCc2ccccc2Cl)c2nc(Sc3ccc4c(c3)OC(F)(F)O4)nc1-2 [Example 295, 3-[2-(2-Chlorophenyl)ethyl]-8-[(2,2-difluoro-1,3-benzodioxol-5-yl)thio]-3H-purin-6-amine]
2 | 39 | Nc1ncn(CC(c2ccccc2)C2CCCC2)c2nc(Sc3cc4c(cc3Br)OCO4)nc1-2 (stereo not drawn) [Example 102, 8-(6-bromo-benzo[1,3]dioxol-5-ylsulfanyl)-3-(2-cyclopentyl-2-phenyl-ethyl)-3H-purin-6-ylamine]
3 | 0 | CC(C)(C)OC(=O)N1CCCC1CCn1cnc(N)c2nc(Sc3cc4c(cc3Br)OCO4)nc1-2 (stereo not drawn) [Example 412, tert-Butyl 2-(2-{6-amino-8-[(6-bromo-1,3-benzodioxol-5-yl)thio]-3H-purin-3-yl}ethyl)pyrrolidine-1-carboxylate]
4 | 25.0 | Nc1ncnc2c1nc(Sc1cc(OC(F)(F)F)ccc1OC1CCCC1)n2CCc1ccccc1Cl [Example 329, 9-[2-(2-Chlorophenyl)ethyl]-8-{[2-(cyclopentyloxy)-5-(trifluoromethoxy)phenyl]thio}-9H-purin-6-amine]
5 | 0 | CC(=O)c1ccc(CCn2cnc(N)c3nc(Sc4cc5c(cc4Br)OCO5)nc2-3)cc1 [Example 160, 1-(4-{2-[6-amino-8-(6-bromo-benzo[1,3]dioxol-5-ylsulfanyl)-purin-3-yl]-ethyl}-phenyl)-ethanone]
6 | 17 | Nc1ncnc2c1nc(Sc1cc3c(cc1Br)OCO3)n2CCc1cccc(F)c1F [Example 161, 8-(6-Bromo-benzo[1,3]dioxol-5-ylsulfanyl)-9-[2-(2,3-difluoro-phenyl)-ethyl]-9H-purin-6-ylamine]

Second part, the compound before the results:

Row | Structure (SMILES) | % Inhibition at 5 μM Compound Concentration [%]
7 | Nc1ncn(CCc2ccsc2)c2nc(Sc3cc4c(cc3Br)OCO4)nc1-2 [Example 202, 8-(6-bromo-benzo[1,3]dioxol-5-ylsulfanyl)-3-(2-thiophen-3-yl-ethyl)-3H-purin-6-ylamine] | 9
8 | Nc1ncn(CCC23CC4CC(CC(C4)C2)C3)c2nc(Sc3cc4c(cc3Br)OCO4)nc1-2 [Example 357, 3-[2-(1-Adamantyl)ethyl]-8-[(6-bromo-1,3-benzodioxol-5-yl)thio]-3H-purin-6-amine] | 0
9 | Nc1ncn(CCc2cccnc2)c2nc(Sc3cc4c(cc3Br)OCO4)nc1-2 [Example 152, 8-(6-bromo-benzo[1,3]dioxol-5-ylsulfanyl)-3-(2-pyridin-3-yl-ethyl)-3H-purin-6-ylamine] | 20
10 | COc1ccc(Sc2nc3c(N)ncn(CCc4ccccc4)c-3n2)c(OC)c1 [Example 16, 8-(2,4-dimethoxy-phenylsulfanyl)-3-phenethyl-3H-purin-6-ylamine] | 6
11 | COc1ccc(OC)c(Sc2nc3c(N)ncn(CCc4ccc(Cl)cc4F)c-3n2)c1 [Example 98, 3-[2-(4-chloro-2-fluoro-phenyl)-ethyl]-8-(2,5-dimethoxy-phenylsulfanyl)-3H-purin-6-ylamine] | 0
12 | Nc1ncn(CCc2cccc(C(F)(F)F)c2)c2nc(Sc3cc4c(cc3Br)OCO4)nc1-2 [Example 166, 8-(6-Bromo-benzo[1,3]dioxol-5-ylsulfanyl)-3-[2-(3-trifluoromethyl-phenyl)-ethyl]-3H-purin-6-ylamine] | 0
13 | Cc1ccccc1CCn1cnc(N)c2nc(Sc3cc4c(cc3Br)OCO4)nc1-2 [Example 156, 8-(6-bromo-benzo[1,3]dioxol-5-ylsulfanyl)-3-(2-o-tolyl-ethyl)-3H-purin-6-ylamine] | 16
14 | CC(C)n1nnnc1N1CCC(CCn2cnc(N)c3nc(Sc4cc5c(cc4Br)OCO5)nc2-3)CC1 [Example 613, 8-[(6-Bromo-1,3-benzodioxol-5-yl)thio]-3-{2-[1-(1-isopropyl-1 H-tetrazol-5-yl)piperidin-4-yl]ethyl}-3 H-purin-6-amine] | 15.00
15 | CO[C@H](C)C(=O)N1CCC(CCn2cnc(N)c3nc(Sc4cc5c(cc4Br)OCO5)nc2-3)CC1 [Example 726, 8-[(6-Bromo-1,3-benzodioxol-5-yl)thio]-3-(2-{1-[(2R)-2-methoxypropanoyl]piperidin-4-yl}ethyl)-3 H-purin-6-amine] | 26

Same assay, conditions: BODIPY-GM 10 nM, Hsp90 30 nM

Row | IC50 [nM] | Structure (SMILES)
16 | 1900 | COc1ccc(OC)c(Sc2nc3c(N)ncnc3n2CCc2cccc(Br)c2)c1 [Example 77, 9-[2-(3-Bromo-phenyl)-ethyl]-8-(2,5-dimethoxy-phenylsulfanyl)-9H-purin-6-ylamine]
17 | 50 | Nc1ncnc2c1nc(Sc1cc3c(cc1Br)OCCO3)n2CCC1CCN(C=O)CC1 [Example 545, 4-(2-{6-Amino-8-[(7-bromo-2,3-dihydro-1,4-benzodioxin-6-yl)thio]-9 H-purin-9-yl}ethyl)piperidine-1-carbaldehyde]
18 | 50 | Nc1ncnc2c1nc(Sc1cc3c(cc1Br)OCO3)n2CCc1cccnc1 [Example 151, 8-(6-Bromo-benzo[1,3]dioxol-5-ylsulfanyl)-9-(2-pyridin-3-yl-ethyl)-9H-purin-6-ylamine]
19 | 32000 | CO[C@@H](C)C(=O)N1CCC(CCn2cnc(N)c3nc(Sc4cc5c(cc4Br)OCO5)nc2-3)CC1 [Example 727, 8-[(6-Bromo-1,3-benzodioxol-5-yl)thio]-3-(2-{1-[(2S)-2-methoxypropanoyl]piperidin-4-yl}ethyl)-3 H-purin-6-amine]
20 | 600 | Nc1ncnc2c1nc(Sc1cc3c(cc1Br)OCO3)n2CCC1CCN(CC(F)(F)F)CC1 [Example 585, 8-[(6-Bromo-1,3-benzodioxol-5-yl)thio]-9-{2-[1-(2,2,2-trifluoroethyl)piperidin-4-yl]ethyl}-9 H-purin-6-amine]
21 | 12000 | Nc1ncnc2c1nc(Sc1ccc3ncoc3c1)n2CCc1ccccc1 [Example 283, 8-(1,3-Benzoxazol-6-ylthio)-9-(2-phenylethyl)-9H-purin-6-amine]
22 | 8100 | COc1cc(Sc2nc3c(N)ncnc3n2CCc2ccccc2)cc(OC)c1OC [Example 45, 9-Phenethyl-8-(3,4,5-trimethoxy-phensulfanyl)-9H-purin-6-ylamine]
23 | > 10000 | COc1cc(Sc2nc3c(N)ncn(CCCc4ccccc4)c-3n2)cc(OC)c1OC [Example 48, 3-(3-phenyl-propyl)-8-(3,4,5-trimethoxy-phenylsulfanyl)-3H-purin-6-ylamine]
24 | 320 | Nc1ncnc2c1nc(Sc1cc3c(cc1Br)OCO3)n2CCc1cccc(F)c1F [Example 161, 8-(6-Bromo-benzo[1,3]dioxol-5-ylsulfanyl)-9-[2-(2,3-difluoro-phenyl)-ethyl]-9H-purin-6-ylamine]

Further lines, the compound ahead of its results:

Row | Structure (SMILES) | IC50 [nM]
25 | C[C@@H](NC(=O)OC(C)(C)C)C(=O)N1CCCC(CCn2c(Sc3cc4c(cc3Br)OCO4)nc3c(N)ncnc32)C1 (stereo partly drawn) [Example 701, tert-Butyl{(1R)-2-[3-(2-{6-amino-8-[(6-bromo-1,3-benzodioxol-5-yl)thio]-9H-purin-9-yl}ethyl)piperidin-1-yl]-1-methyl-2-oxoethyl}carbamate] | 200
26 | C[C@H](O)C(=O)N1CCC(CCn2c(Sc3cc4c(cc3Br)OCO4)nc3c(N)ncnc32)CC1 [Example 757, (2S)-1-[4-(2-{6-amino-8-[(6-bromo-1,3-benzodioxol-5-yl)thio]-9H-purin-9-yl}ethyl)piperidin-1-yl]-1-oxopropan-2-ol] | 205
27 | CS(=O)(=O)N1CCCC(CCn2c(Sc3cc4c(cc3Br)OCO4)nc3c(N)ncnc32)C1 (stereo not drawn) [Example 369, 8-[(6-Bromo-1,3-benzodioxol-5-yl)thio]-9-{2-[1-(methylsulfonyl)piperidin-3-yl]ethyl}-9H-purin-6-amine] | 35
28 | Nc1ncnc2c1nc(Sc1cc3c(cc1Br)OCO3)n2CCC1CCNC1 (stereo not drawn) [Example 476, 8-[(6-Bromo-1,3-benzodioxol-5-yl)thio]-9-(2-pyrrolidin-3-ylethyl)-9 H-purin-6-amine] | 90
29 | CC(=O)N1CCC(CCn2c(Sc3cc(Br)c4c(c3)CCO4)nc3c(N)ncnc32)CC1 [Example 530, 9-[2-(1-Acetylpiperidin-4-yl)ethyl]-8-[(7-bromo-2,3-dihydro-1-benzofuran-5-yl)thio]-9 H-purin-6-amine] | 2500
30 | CO[C@H](C)C(=O)N1CCC(CCn2c(Sc3cc4c(cc3Br)OCO4)nc3c(N)ncnc32)CC1 [Example 725, 8-[(6-Bromo-1,3-benzodioxol-5-yl)thio]-9-(2-{1-[(2R)-2-methoxypropanoyl]piperidin-4-yl}ethyl)-9H-purin-6-amine] | 100
31 | C[C@H](O)C(=O)N1CCC(CCn2c(Sc3ccc4c(c3)CCO4)nc3c(N)ncnc32)CC1 [Example 768, (2S)-1-(4-{2-[6-Amino-8-(2,3-dihydro-1-benzofuran-5-ylthio)-9H-purin-9-yl]ethyl}piperidin-1-yl)-1-oxopropan-2-ol] | > 5000
32 | COc1cc(Sc2nc3c(N)ncn(CCc4ccc(Cl)cc4)c-3n2)cc(OC)c1OC [Example 32, 3-[2-(4-chloro-phenyl)-ethyl]-8-(3,4,5-trimethoxy-phenylsulfanyl)-3H-purin-6-ylamine] | > 10000
33 | CC(=O)N1CCC(CCn2c(Sc3nc4ccc([N+](=O)[O-])cc4s3)nc3c(N)ncnc32)CC1 [Example 651, 9-[2-(1-Acetylpiperidin-4-yl)ethyl]-8-[(6-nitro-1,3-benzothiazol-2-yl)thio]-9H-purin-6-amine] | > 5000
34 | CCOP(=O)(OCC)N1CCC(CCn2c(Sc3cc4c(cc3Br)OCO4)nc3c(N)ncnc32)CC1 [Example 644, Diethyl [4-(2-{6-amino-8-[(6-bromo-1,3-benzodioxol-5-yl)thio]-9 H-purin-9-yl}ethyl)piperidin-1-yl]phosphonate] | 200
35 | COc1ccc(F)cc1Sc1nc2c(N)ncnc2n1CCc1ccccc1Cl [Example 316, 9-[2-(2-Chlorophenyl)ethyl]-8-[(5-fluoro-2-methoxyphenyl)thio]-9H-purin-6-amine] | 18000
36 | CC(=O)N1CCC(CCn2c(Sc3nc(C)c(CC(N)=O)s3)nc3c(N)ncnc32)CC1 [Example 660, 2-[2-({9-[2-(1-Acetylpiperidin-4-yl)ethyl]-6-amino-9H-purin-8-yl}thio)-4-methyl-1,3-thiazol-5-yl]acetamide] | > 5000
